# Laboratory results taken from patent US20240156094A1, “MELATONIN COMPOSITION WITH METALS AND A METHOD FOR ENHANCING ENZYMATIC REACTIONS AND METABOLIC PATHWAYS IN PLANTS” (FERTIS INDIA PVT. LTD., priority 2021, published 2024).
# What was measured:
# Type in all cases: in vivo
# paddy grains = test: Analysis of micronutrient absorption levels in paddy grains by ICP; conditions: paddy grain powder, acid digest
# Protocol: Analysis of Micronutrients in Paddy Samples by ICP (Inductive Coupled Plasma) Equipment.
# The method include the steps of:— • 1. 1 gm of grain powder was added to 60 ml of perchloric acid and Nitric acid (9:1) and were digested overnight. • 2. Heat the mixtures at 100 c for 2 hours until vapors change from red to white color. • 3. The resultant solution was filtered through a Whatman paper and makeup to 100 ml with 1% nitric acid. • 4. The solution was tested for micronutrients by ICP.
# plants [1] = test: Total polyphenol content (Folin-Ciocalteu, absorbance at 765 nm); conditions: 1 g test sample, 70% methanol extract
# Protocol: Total polyphenol content were estimated by performing the following steps:— • 10-15 ml of 70% MeOH (70 ml methanol: 30 ml water) were added to 1 g of test sample • Filter through whatman filter paper 1 and was made up to 25 ml with 70% methanol. • 5 ml of folin ciocalteu's phenol reagent were added. • Incubation for 5 mins. • 4 ml of 7.5% Na2CO3 were added and incubated for 1 hr. • absorbance was measured at 765 nm.
# plants [2] = test: Total protein content (Lowry method, absorbance at 660 nm); conditions: 1 g of sample in 25 ml
# Protocol: Total protein content in the sample content were estimated by performing Lowry method which include the following steps:— • 1 g of samples in 25 ml were filtered through whatman filter paper 1 • 4.5 ml of a reagent comprising NaOH, sodium potassium tartrate, and CuSO4.5H2O were added and incubated for 10 mins. • After incubation, 0.5 ml of Folin-Ciocalteu's phenol reagent were added and incubated for 30 mins. • Absorbance was measured with UV Vis Spectrophotometer At 660 nm and a standard graph was plotted.
compound,measurement,setting,value
"COc1ccc2[nH]cc(CCNC(C)=O)c2c1 [Melatonin, N-Acetyl-5-methoxytryptamine]",Al,paddy grains,241.3 ppm
same,B,paddy grains,40.5 ppm
same,Ca,paddy grains,405.7 ppm
same,Co,paddy grains,15.4 ppm
same,Fe,paddy grains,257.9 ppm
same,Mg,paddy grains,697.2 ppm
same,Mn,paddy grains,42.5 ppm
same,Zn,paddy grains,29.1 ppm
same,Total Phenol content in ppm,plants [1],18.6 ppm
same,Total Protein content in %,plants [2],0.076%
